Measurements from patent US20040220115A1, “Medicinal compositions and their method of preparation” (priority 1999, published 2004).

What was measured:
[1] = Degradation of stored BEC extract, solamargine and solasonine levels by HPLC; type: physicochemical; settings: for % degradation estimated: four weeks storage under ambient conditions, estimated from the degradation study
Source text: A BEC extract was obtained from Solanum Sodomaeum according to conventional extraction procedures. The degradation of the BEC extract was estimated by measuring the change in solamargine and solasonine levels over time. Although degradation of BEC could also be measured by an increase in sugar levels, in practice HPLC analysis for solamargine and solasonine allowed a more quantative analysis to be conducted and was therefore chosen for this study.

[2] = tested on: human ovarian cancer cells; assay: Effect of washed and unwashed BEC on human ovarian cancer cells; type: cell-based
Experimental: The effect of washed and unwashed BEC or human ovarian cancer cells was compared. The washed and unwashed BEC were prepared as described for Example 8.
Cells (5×10^4) were transferred (200 μl chamber of a microscope slide (Lab Tek Miles Scientific). Controls received 50 μl HIFCS/TCM and experimental chambers 50 μl of solasodine glycosides (BEC) 1.5-3.8 μM/L, washed and unwashed after 7-h preincubation and incubated for a further 17 h and […] preincubation and incubated for a further 3h. Similarly, the cells were treated with the aglycone solasodine 19.4-96.8 μM/L. The cells were fixed and examined by the Papanicolaou method.

murine sarcoma 180 = settings: cited from earlier work
[3] = Time 0 years storage of BEC extract

## C[C@@H]1CC[C@@]2(NC1)O[C@H]1C[C@H]3[C@@H]4CC=C5C[C@@H](O[C@@H]6O[C@H](CO)[C@@H](O[C@@H]7O[C@@H](C)[C@H](O)[C@@H](O)[C@H]7O)[C@H](O)[C@H]6O[C@@H]6O[C@@H](C)[C@H](O)[C@@H](O)[C@H]6O)CC[C@]5(C)[C@H]4CC[C@]3(C)[C@H]1[C@@H]2C [Solamargine, (22R,25R)-spiro-5-en-3β-yl-α-L-rhamnopyranosyl-(1->2glu)-O-α-L-rhamnopyranosyl-(1->4glu)-β-D-gluco-pyranose]
[1]; [3]
  Degradation (%) mean ± S.D.: 0%
[1]; Time 0.5 years
  Degradation (%) mean ± S.D.: 4 ± 4%
[1]; Time 1 year
  Degradation (%) mean ± S.D.: 8 ± 5%
[1]; Time 2 years
  Degradation (%) mean ± S.D.: 12 ± 7%
[1]; Time 3 years
  Degradation (%) mean ± S.D.: 15 ± 8%
[1]; Time 4 years
  Degradation (%) mean ± S.D.: 19 ± 10%
[1]; Time 5 years
  Degradation (%) mean ± S.D.: 22 ± 10%
[1]
  % degradation estimated: less than 4%

## C[C@@H]1CC[C@@]2(NC1)O[C@H]1C[C@H]3[C@@H]4CC=C5C[C@@H](O)CC[C@]5(C)[C@H]4CC[C@]3(C)[C@H]1[C@@H]2C [Solasodine, solasodine]
[2]; 3 μg/mL
  % survival: 100%
[2]; 6 μg/mL
  % survival: 100%
[2]; 9 μg/ml
  % survival: 100%
[2]; 12 μg/ml
  % survival: 100%
[2]; 15 μg/ml
  % survival: 100%
[2]; 18 μg/ml
  % survival: 100%
[2]; 24 μg/ml
  % survival: 100%
Murine sarcoma 180; administered at levels at which BEC is effective
  effect against tumor cells: ineffective

## C[C@@H]1CC[C@@]2(NC1)O[C@H]1C[C@H]3[C@@H]4CC=C5C[C@@H](O[C@@H]6O[C@H](CO)[C@H](O)[C@H](O[C@@H]7O[C@H](CO)[C@@H](O)[C@H](O)[C@H]7O)[C@H]6O[C@@H]6O[C@@H](C)[C@H](O)[C@@H](O)[C@H]6O)CC[C@]5(C)[C@H]4CC[C@]3(C)[C@H]1[C@@H]2C [Solasonine, (22R, 25R)-spiro-5-en-3β-yl-α-L-rhamnopyranosyl-(1->2gal)-O-β-D-glucopyranosyl-(1->3gal)-β-D-galactopyranose]
[1]; [3]
  Degradation (%) mean ± S.D.: 0%
[1]; Time 0.5 years
  Degradation (%) mean ± S.D.: 5 ± 5%
[1]; Time 1 year
  Degradation (%) mean ± S.D.: 10 ± 5%
[1]; Time 2 years
  Degradation (%) mean ± S.D.: 15 ± 8%
[1]; Time 3 years
  Degradation (%) mean ± S.D.: 19 ± 9%
[1]; Time 4 years
  Degradation (%) mean ± S.D.: 21 ± 10%
[1]; Time 5 years
  Degradation (%) mean ± S.D.: 23 ± 11%
[1]
  % degradation estimated: < 5%

## C[C@H](O)[C@H](O)[C@@H](O)[C@@H](O)C=O [rhamnose]
Murine sarcoma 180; similar concentrations of rhamnose in the absence of BEC
  effect on S180 activity: no effect
